According to patent US10844077B2, “Thiazolyl-containing compounds for treating proliferative diseases” (Dana-Farber Cancer Institute, Inc., priority 2014, dated 2020):
Like-named read-outs stand apart in the source and are kept apart here.

Experiments:
Type in all cases: binding
[1] = biological target: broad panel of kinases (Homo sapiens, UniProt O75582); conditions: 1 μM
[2] = biological target: broad panel of kinases (Homo sapiens, UniProt O75747); conditions: PIK3C2G; 1 μM
[3] = biological target: broad panel of kinases (Homo sapiens, UniProt O76039); conditions: CDKL5; 1 μM
[4] = biological target: broad panel of kinases (Homo sapiens, UniProt O94806); conditions: PRKD3; 1 μM
[5] = biological target: broad panel of kinases (Homo sapiens, UniProt P00533, DEL752-759); conditions: EGFR(S752-I759del); 1 μM
[6] = biological target: broad panel of kinases (Homo sapiens, UniProt P06239); conditions: LCK; 1 μM
Chain of broad panel of kinases (Homo sapiens, UniProt P06239) (P06239 2-509 limits assumed): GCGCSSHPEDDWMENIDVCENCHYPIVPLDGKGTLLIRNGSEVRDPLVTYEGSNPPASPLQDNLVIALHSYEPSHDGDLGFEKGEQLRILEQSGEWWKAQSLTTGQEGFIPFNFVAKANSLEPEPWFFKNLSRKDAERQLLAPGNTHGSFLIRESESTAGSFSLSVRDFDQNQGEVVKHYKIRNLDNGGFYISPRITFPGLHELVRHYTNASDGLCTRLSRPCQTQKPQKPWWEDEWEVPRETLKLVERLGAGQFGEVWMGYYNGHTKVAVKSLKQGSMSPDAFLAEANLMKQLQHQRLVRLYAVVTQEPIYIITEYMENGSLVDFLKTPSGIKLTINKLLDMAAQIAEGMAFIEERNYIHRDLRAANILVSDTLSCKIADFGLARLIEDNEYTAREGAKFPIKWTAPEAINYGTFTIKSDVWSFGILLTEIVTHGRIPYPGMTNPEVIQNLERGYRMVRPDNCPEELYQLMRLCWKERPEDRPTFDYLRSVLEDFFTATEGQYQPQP

[7] = biological target: broad panel of kinases (Homo sapiens, UniProt P06241); conditions: FYN; 1 μM
Chain of broad panel of kinases (Homo sapiens, UniProt P06241) (P06241 2-537 limits assumed): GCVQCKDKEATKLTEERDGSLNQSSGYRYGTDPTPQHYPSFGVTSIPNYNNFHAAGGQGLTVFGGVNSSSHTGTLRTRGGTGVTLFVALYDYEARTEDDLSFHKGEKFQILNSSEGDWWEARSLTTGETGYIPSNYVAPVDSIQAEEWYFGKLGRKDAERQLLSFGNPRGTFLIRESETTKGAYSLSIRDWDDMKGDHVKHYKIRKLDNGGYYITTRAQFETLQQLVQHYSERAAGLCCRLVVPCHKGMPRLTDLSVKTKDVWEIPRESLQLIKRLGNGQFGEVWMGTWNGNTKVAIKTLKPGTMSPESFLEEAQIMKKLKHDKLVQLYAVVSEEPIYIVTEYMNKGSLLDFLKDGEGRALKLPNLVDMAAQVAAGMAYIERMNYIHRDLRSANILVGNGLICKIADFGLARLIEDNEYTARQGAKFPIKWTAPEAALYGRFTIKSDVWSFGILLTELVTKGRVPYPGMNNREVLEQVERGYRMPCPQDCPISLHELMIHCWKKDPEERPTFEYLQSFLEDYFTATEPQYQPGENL

[8] = biological target: broad panel of kinases (Homo sapiens, UniProt P07332); conditions: FES; 1 μM
[9] = biological target: broad panel of kinases (Homo sapiens, UniProt P36888, N841I); conditions: FLT3(N841I); 1 μM
[10] = biological target: broad panel of kinases (Homo sapiens, UniProt P42336); conditions: PIK3CA; 1 μM
[11] = biological target: broad panel of kinases (Homo sapiens, UniProt P42336, E545K); conditions: PIK3CA(E545K); 1 μM
[12] = biological target: broad panel of kinases (Homo sapiens, UniProt P51956); conditions: NEK3; 1 μM
[13] = biological target: broad panel of kinases (Homo sapiens, UniProt P78362); conditions: SRPK2; 1 μM
[14] = biological target: broad panel of kinases (Homo sapiens, UniProt P78368); conditions: CSNK1G2; 1 μM
[15] = biological target: broad panel of kinases (Homo sapiens, UniProt Q02156); conditions: PRKCE; 1 μM
[16] = biological target: broad panel of kinases (Homo sapiens, UniProt Q02750); conditions: MEK1; 1 μM
[17] = biological target: broad panel of kinases (Homo sapiens, UniProt Q13177); conditions: PAK2; 1 μM
Chain of broad panel of kinases (Homo sapiens, UniProt Q13177) (Q13177 2-524 limits assumed): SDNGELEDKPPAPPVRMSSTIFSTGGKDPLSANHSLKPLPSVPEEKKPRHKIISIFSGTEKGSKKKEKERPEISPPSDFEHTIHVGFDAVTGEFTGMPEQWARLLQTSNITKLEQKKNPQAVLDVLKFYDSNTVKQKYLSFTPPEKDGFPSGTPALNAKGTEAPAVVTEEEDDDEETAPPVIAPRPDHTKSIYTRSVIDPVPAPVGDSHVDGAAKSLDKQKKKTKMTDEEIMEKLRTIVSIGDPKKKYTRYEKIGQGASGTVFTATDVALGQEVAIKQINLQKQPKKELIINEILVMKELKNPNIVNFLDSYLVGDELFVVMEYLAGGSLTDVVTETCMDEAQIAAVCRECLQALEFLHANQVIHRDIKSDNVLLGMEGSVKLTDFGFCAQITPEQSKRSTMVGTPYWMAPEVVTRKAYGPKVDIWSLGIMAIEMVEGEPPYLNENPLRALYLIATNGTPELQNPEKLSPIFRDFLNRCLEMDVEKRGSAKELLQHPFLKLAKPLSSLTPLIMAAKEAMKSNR

[18] = biological target: broad panel of kinases (Homo sapiens, UniProt Q13464); conditions: ROCK1; 1 μM
Chain of broad panel of kinases (Homo sapiens, UniProt Q13464) (Q13464 2-1354 limits assumed): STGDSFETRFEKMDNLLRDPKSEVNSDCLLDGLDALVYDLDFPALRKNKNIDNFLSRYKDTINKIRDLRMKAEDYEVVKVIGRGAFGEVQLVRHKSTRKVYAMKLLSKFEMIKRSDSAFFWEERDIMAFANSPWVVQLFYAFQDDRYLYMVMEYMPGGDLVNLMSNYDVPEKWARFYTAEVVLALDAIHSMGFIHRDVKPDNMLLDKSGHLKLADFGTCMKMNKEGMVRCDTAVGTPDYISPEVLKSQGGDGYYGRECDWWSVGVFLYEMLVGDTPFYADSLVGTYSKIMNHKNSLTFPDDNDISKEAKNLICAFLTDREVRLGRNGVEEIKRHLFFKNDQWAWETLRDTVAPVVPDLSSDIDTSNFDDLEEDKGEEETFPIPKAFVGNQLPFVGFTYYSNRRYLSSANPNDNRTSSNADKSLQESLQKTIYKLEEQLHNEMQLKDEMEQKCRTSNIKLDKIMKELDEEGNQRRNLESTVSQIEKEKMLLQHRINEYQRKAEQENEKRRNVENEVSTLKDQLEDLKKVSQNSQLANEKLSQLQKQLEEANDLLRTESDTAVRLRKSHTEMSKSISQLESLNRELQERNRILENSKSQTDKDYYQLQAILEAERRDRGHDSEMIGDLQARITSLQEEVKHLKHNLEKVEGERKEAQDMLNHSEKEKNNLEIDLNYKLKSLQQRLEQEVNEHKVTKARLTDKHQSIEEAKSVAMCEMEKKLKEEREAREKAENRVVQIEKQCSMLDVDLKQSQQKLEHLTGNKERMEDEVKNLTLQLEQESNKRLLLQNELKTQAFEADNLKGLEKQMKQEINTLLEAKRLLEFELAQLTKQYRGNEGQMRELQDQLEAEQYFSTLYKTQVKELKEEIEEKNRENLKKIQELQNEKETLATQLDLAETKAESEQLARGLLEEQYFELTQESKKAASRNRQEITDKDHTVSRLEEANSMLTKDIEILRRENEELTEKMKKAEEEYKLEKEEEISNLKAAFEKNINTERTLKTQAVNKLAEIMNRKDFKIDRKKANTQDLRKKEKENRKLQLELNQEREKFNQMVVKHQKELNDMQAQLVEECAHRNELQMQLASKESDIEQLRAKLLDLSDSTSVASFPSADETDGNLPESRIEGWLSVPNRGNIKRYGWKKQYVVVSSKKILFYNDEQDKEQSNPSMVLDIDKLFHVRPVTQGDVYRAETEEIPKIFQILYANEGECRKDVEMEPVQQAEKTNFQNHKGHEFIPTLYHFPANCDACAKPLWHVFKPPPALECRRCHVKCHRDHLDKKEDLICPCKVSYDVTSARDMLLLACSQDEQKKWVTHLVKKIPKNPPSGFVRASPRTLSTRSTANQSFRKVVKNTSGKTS

[19] = biological target: broad panel of kinases (Homo sapiens, UniProt Q16566); conditions: CAMK4; 1 μM
[20] = biological target: broad panel of kinases (Homo sapiens, UniProt Q16832); conditions: DDR2; 1 μM
Chain of broad panel of kinases (Homo sapiens, UniProt Q16832) (Q16832 22-855 limits assumed): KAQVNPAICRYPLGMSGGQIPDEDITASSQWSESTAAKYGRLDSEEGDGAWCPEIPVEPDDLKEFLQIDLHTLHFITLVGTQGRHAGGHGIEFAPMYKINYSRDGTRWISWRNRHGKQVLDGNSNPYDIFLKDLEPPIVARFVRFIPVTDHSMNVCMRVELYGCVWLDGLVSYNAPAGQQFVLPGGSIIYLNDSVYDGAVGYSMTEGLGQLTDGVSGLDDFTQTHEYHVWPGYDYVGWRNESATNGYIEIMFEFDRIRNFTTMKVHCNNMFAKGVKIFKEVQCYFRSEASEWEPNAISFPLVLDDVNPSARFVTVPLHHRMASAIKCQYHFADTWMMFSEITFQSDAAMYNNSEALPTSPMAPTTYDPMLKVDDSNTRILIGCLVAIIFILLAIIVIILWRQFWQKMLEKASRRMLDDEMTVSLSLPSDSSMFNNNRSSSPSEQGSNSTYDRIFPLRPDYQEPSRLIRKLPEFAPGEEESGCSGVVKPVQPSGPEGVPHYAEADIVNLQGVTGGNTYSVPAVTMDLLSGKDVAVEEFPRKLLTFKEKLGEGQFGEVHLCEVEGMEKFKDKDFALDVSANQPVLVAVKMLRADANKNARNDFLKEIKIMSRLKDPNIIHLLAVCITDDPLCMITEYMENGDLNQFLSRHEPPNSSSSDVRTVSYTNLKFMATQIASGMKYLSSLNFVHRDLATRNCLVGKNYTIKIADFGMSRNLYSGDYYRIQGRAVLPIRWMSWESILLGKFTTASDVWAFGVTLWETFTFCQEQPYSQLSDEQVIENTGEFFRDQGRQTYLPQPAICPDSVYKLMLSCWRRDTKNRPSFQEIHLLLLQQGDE

[21] = biological target: broad panel of kinases (Homo sapiens, UniProt Q2M2I8); conditions: AAK1; 1 μM
[22] = biological target: broad panel of kinases (Homo sapiens, UniProt Q86UE8); conditions: TLK2; 1 μM
[23] = biological target: broad panel of kinases (Homo sapiens, UniProt Q86Z02); conditions: HIPK1; 1 μM
[24] = biological target: broad panel of kinases (Homo sapiens, UniProt Q8TDR2); conditions: STK35; 1 μM
[25] = biological target: broad panel of kinases (Homo sapiens, UniProt Q8TF76); conditions: HASPIN; 1 μM
[26] = biological target: broad panel of kinases (Homo sapiens, UniProt Q96GD4); conditions: AURKB; 1 μM
[27] = biological target: broad panel of kinases (Homo sapiens, UniProt Q99640); conditions: PKMYT1; 1 μM
[28] = biological target: broad panel of kinases (Homo sapiens, UniProt Q9H0K1); conditions: SIK2; 1 μM
[29] = biological target: broad panel of kinases (Homo sapiens, UniProt Q9H1R3); conditions: MYLK2; 1 μM
Chain of broad panel of kinases (Homo sapiens, UniProt Q9H1R3) (Q9H1R3 2-596 limits assumed): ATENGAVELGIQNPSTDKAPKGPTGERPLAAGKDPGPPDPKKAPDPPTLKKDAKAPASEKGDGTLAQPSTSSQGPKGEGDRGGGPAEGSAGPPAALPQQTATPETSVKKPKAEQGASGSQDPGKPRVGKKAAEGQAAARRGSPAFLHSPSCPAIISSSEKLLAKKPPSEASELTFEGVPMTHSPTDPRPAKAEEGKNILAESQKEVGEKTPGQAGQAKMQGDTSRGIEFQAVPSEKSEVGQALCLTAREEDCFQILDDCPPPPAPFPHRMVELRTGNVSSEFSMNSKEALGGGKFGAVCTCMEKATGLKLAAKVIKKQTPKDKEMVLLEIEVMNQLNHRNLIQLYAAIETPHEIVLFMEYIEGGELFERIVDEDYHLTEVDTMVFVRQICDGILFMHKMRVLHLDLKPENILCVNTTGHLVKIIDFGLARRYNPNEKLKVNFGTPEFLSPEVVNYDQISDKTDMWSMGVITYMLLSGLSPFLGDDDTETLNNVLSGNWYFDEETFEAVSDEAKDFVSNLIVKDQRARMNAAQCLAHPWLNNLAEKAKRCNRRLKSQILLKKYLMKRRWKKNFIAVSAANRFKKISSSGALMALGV

[30] = biological target: broad panel of kinases (Homo sapiens, UniProt Q9H3Y6); conditions: SRMS; 1 μM
[31] = biological target: broad panel of kinases (Homo sapiens, UniProt Q9H4A3); conditions: WNK1; 1 μM
[32] = biological target: broad panel of kinases (Homo sapiens, UniProt Q9NRH2); conditions: SNRK; 1 μM
[33] = biological target: broad panel of kinases (Homo sapiens, UniProt Q9NRM7); conditions: LATS2; 1 μM
[34] = biological target: broad panel of kinases (Homo sapiens, UniProt Q9UKE5); conditions: TNIK; 1 μM
[35] = biological target: broad panel of kinases (Homo sapiens, UniProt Q9UQB9); conditions: AURKC; 1 μM
[36] = biological target: broad panel of kinases (Homo sapiens, UniProt Q9UQM7); conditions: CAMK2A; 1 μM
[37] = biological target: broad panel of kinases (Homo sapiens, UniProt Q9Y463); conditions: DYRK1B; 1 μM

| SMILES | percent of control binding remaining (lower = stronger binding) ([1]; RPS6KA5(Kin.Dom.1-N-terminal)) | percent of control binding remaining (lower = stronger binding) ([1]; RPS6KA5(Kin.Dom.2-C-terminal)) | percent of control binding remaining (lower = stronger binding) [2] | percent of control binding remaining (lower = stronger binding) [3] | percent of control binding remaining (lower = stronger binding) [4] | percent of control binding remaining (lower = stronger binding) [5] | percent of control binding remaining (lower = stronger binding) [7] | percent of control binding remaining (lower = stronger binding) [8] | percent of control binding remaining (lower = stronger binding) [9] | percent of control binding remaining (lower = stronger binding) [10] | percent of control binding remaining (lower = stronger binding) [11] | percent of control binding remaining (lower = stronger binding) [12] | percent of control binding remaining (lower = stronger binding) [13] | percent of control binding remaining (lower = stronger binding) [14] | percent of control binding remaining (lower = stronger binding) [15] | percent of control binding remaining (lower = stronger binding) [16] | percent of control binding remaining (lower = stronger binding) [17] | percent of control binding remaining (lower = stronger binding) [18] | percent of control binding remaining (lower = stronger binding) [19] | percent of control binding remaining (lower = stronger binding) [20] | also measured |
| --- | --- | --- | --- | --- | --- | --- | --- | --- | --- | --- | --- | --- | --- | --- | --- | --- | --- | --- | --- | --- | --- |
| C=CC(=O)N1CC[C@H](Nc2nc(CN3CCOCC3)cc(Nc3ncc(C(=O)Nc4c(C)cccc4C)s3)n2)C1 [Example I-2] | 98% | 94% | 92% | 100% | 81% | 17% | 0.3% | 98% | 100% | 100% | 94% | 94% | 92% | 97% | 100% | 67% | 92% | 88% | 96% | 8.6% | percent of control binding remaining (lower = stronger binding) [6]: 0.65%; percent of control binding remaining (lower = stronger binding) [21]: 97%; percent of control binding remaining (lower = stronger binding) [22]: 97%; percent of control binding remaining (lower = stronger binding) [23]: 93%; percent of control binding remaining (lower = stronger binding) [24]: 99%; percent of control binding remaining (lower = stronger binding) [25]: 100%; percent of control binding remaining (lower = stronger binding) [26]: 96%; percent of control binding remaining (lower = stronger binding) [27]: 59%; percent of control binding remaining (lower = stronger binding) [28]: 92%; percent of control binding remaining (lower = stronger binding) [29]: 100%; percent of control binding remaining (lower = stronger binding) [30]: 7.6%; percent of control binding remaining (lower = stronger binding) [31]: 100%; percent of control binding remaining (lower = stronger binding) [32]: 100%; percent of control binding remaining (lower = stronger binding) [33]: 100%; percent of control binding remaining (lower = stronger binding) [34]: 97%; percent of control binding remaining (lower = stronger binding) [35]: 90%; percent of control binding remaining (lower = stronger binding) [36]: 86%; percent of control binding remaining (lower = stronger binding) [37]: 94% |
| C=CC(=O)N1CC[C@H](Nc2nccc(Nc3ncc(C(=O)Nc4c(C)cccc4C)s3)n2)C1 [Example I-3] | 88% | 52% | 97% | 100% | 81% | 4.6% | 0.5% | 93% | 100% | 100% | 100% | 95% | 64% | 93% | 100% | 100% | 93% | 89% | 84% | 8.4% | % change compared to control [6]: 0.55%; percent of control binding remaining (lower = stronger binding) [21]: 100%; percent of control binding remaining (lower = stronger binding) [22]: 94%; percent of control binding remaining (lower = stronger binding) [23]: 95%; percent of control binding remaining (lower = stronger binding) [24]: 100%; percent of control binding remaining (lower = stronger binding) [25]: 88%; percent of control binding remaining (lower = stronger binding) [26]: 100%; percent of control binding remaining (lower = stronger binding) [27]: 47%; percent of control binding remaining (lower = stronger binding) [28]: 98%; percent of control binding remaining (lower = stronger binding) [29]: 100%; percent of control binding remaining (lower = stronger binding) [30]: 12%; percent of control binding remaining (lower = stronger binding) [31]: 95%; percent of control binding remaining (lower = stronger binding) [32]: 92%; percent of control binding remaining (lower = stronger binding) [33]: 92%; percent of control binding remaining (lower = stronger binding) [34]: 93%; percent of control binding remaining (lower = stronger binding) [35]: 71%; percent of control binding remaining (lower = stronger binding) [36]: 83%; percent of control binding remaining (lower = stronger binding) [37]: 74% |
